In US9682999B2, “Benzofuran compounds for the treatment of hepatitis C virus infections” (Glaxo Group Limited, priority 2011, dated 2017):
pEC50: −log10 of the molar value.

What was measured:
[1] = In vivo pharmacokinetic study, rat
Experimental: In vivo pharmacokinetic studies were conducted in mouse, rat, dog, or cynomolgus monkey to determine clearance, oral exposure and bioavailability (% F). Solution doses of the compounds were administered intravenously through catheters or orally by gavage. Blood samples were collected at the following time points (n=2 or 3/route/species): 0.083 (IV only), 0.167 (IV only), 0.25, 0.5, 1, 2, 4, 6, 8, 12, and 24 h. Non-compartmental pharmacokinetic parameters were determined using Phoenix Winnonlin 6.1 (Pharsight, Mountain View, Calif.). Bioavailability of the oral formulation of each compound were calculated as the ratio of the oral dose normalized AUCinf to the intravenous dose normalized AUCinf. Results are expressed in Table 2.

[2] = Hepatocyte incubations, metabolic stability; assay type: in vitro ADME; design: dose or concentration left out as unconfirmed; conditions: cryopreserved human hepatocytes, 0.25×10^6 cells, up to 120 min, 37 C
Experimental: Hepatocyte incubations were conducted using cryopreserved hepatocytes purchased from CellzDirect (Durham, N.C.). Cryopreserved hepatocytes were removed from liquid nitrogen and thawed according to XenoTech's guidelines listed in “XenoTech Protocol for Thawing Cryopreserved Hepatocytes” using Hepatocyte Isolation Kit K2000 (Dec. 13, 2004). Hepatocytes were diluted to 1 million cells in 1 mL of Williams E media containing 25 mM HEPES buffer and 2 mM Glutamax.
Hepatocyte incubations were carried out in 96-well plates on an Eppendorf shaker at 350 rpm at 37 C. Reaction mixtures consisted of 0.25×10^6 cells and […] test compound (to maintain a 0.05% final DMSO concentration) in a final volume of 0.5 mL. An initial time-point (t0) was collected and subsequent aliquots were collected at 15, 30, 60, 90, and 120 min. Reactions were terminated by transferring […] of the incubation mixture into a 96-well plate containing […] of an organic mixture [acetonitrile and methanol (80:20)] at 4° C. Precipitated protein was removed by centrifugation and the resultant supernatant was transferred to a new 96-well polypropylene plate for LC/MS/MS analysis. Drug-free matrix control and 2 QC standards (phenacetin and propranolol) were included in each experiment and treated in the same manner as test compound.
Metabolic stability expressed as the percentage of parent compound remaining was calculated from the peak area ratio of compound remaining after incubation (tx) compared to the time zero (t0) incubation.
The half-life (t1/2) was calculated using the following equation: […]
Where K is the slope of the ln % remaining vs. time regression. Half-life values were only reported when at least 15% loss of parent compound was observed.

[3] = test system: sub-genomic HCV NS3-NS5B replicon genotype 1a (Huh-7 cells); assay: Replicon luciferase cell based assay, genotype 1a; conditions: Hepatitis C virus; Huh-7 genotype 1a luciferase replicon, 48 hours; read-out: EC50 GT 1a
Experimental: (§1) 150 μL of a 1 mM stock solution in DMSO of each test compound was transferred into in the first column of a 96 well, V-bottom microplate, to give 200 times the top concentration of the required dilution series. Aliquots of 50 μL were added to each well of the remaining rows containing 100 μL of DMSO giving a 1:3 dilution series over ten points. Columns 11 and 12 contained DMSO only for the positive and negative control, respectively. 10 μL of each well were transferred into 90 μL of DMEM medium (Invitrogen #41965-039) supplemented with 5% v/v foetal calf serum, 1% v/v non-essential amino acids solution, 100 units/ml penicillin, 100 μg/ml streptomycin and 2 mM L-glutamine to give 20 times the top concentration of the required dilution series.
(§2) Suspensions were prepared from cultures of Huh-7 cells stably transfected with sub-genomic HCV NS3-NS5B replicons of either genotype 1b (the ET subline described by Pietschmann, T., Lohmann, V., Kaul, A., Krieger, N., Rinck, G., Rutter, G., Strand, D. & Bartenschlager, R., Journal of Virology, 2002, 76, 4008-4021), genotype 1a (subline 1.19 constructed in-house from H77 SG-Neo containing adaptive mutations P1496L and S2204I as described by Blight, K. J., McKeating, J. A., Marcotrigiano, J., and Rice, C. M. Journal of Virology, 2003, 77, 3180-3190), genotype 1b C316N (constructed in-house by site directed mutagenesis of the NS5B gene of the ET subline), or genotype 1a C316Y (constructed in-house by site directed mutagenesis of the NS5B gene of H77 SG-Neo containing adaptive mutations P1496L and S2204I as described by Blight, K. J., McKeating, J. A., Marcotrigiano, J., and Rice, C. M. Journal of Virology, 2003, 77, 3180-3190) linked to a firefly luciferase reporter gene. Monolayers nearing confluency were stripped from growth flasks with versene-trypsin solution and the cells re-suspended in assay medium comprising DMEM. 95 μL of suspension containing either 15,000 cells (genotype 1b luciferase replicon) or 20,000 cells (genotype 1a luciferase replicon) were added to all wells of a 96 well plate (Perkin Elmer, #6005686), except medium controls in column 12 of the assay plate. The cell suspension was dosed with 5 μL of compound solution and the plate was incubated for 48 hours at 37° C. in a 5% CO2 atmosphere.
(§3) For toxicity the cells in one plate were treated with Cell Titer Glo (Promega, #G7573). A solution of Cell Titer Glo was prepared according to the manufacturer's instructions, and 100 μL added to each well. The plate was then read for luminescence on an Envision. For potency a solution of Steady Glo (Promega, #E2550) was prepared according to the manufacturer's instructions and 100 μL added to each well. After a twenty minute incubation the plate was then read for luminescence on an Envision.
(§4) Potency: The luminescence values from all compound-free wells containing cells were averaged to obtain a positive control value. The mean luminescence value from the compound-free wells that had received no cells was used to provide the negative (background) control value. The readings from the wells at each compound concentration were taken and after the subtraction of the mean background from all values, were expressed as a percentage of the positive control signal. The quantifiable and specific reduction of luciferase signal in the presence of a drug is a direct measure of replicon inhibition. BioAssay Enterprise (CamebridgeSoft) with the XC50 module for curve fitting was used to plot the curve of percentage inhibition against compound concentration and derive the 50% inhibitory concentration (EC50) for the compound. EC50 is the effective concentration, that is, the concentration of compound where 50% maximal effect is observed. The EC50 values of two identical plates were averaged. The results are presented in Table 1 as EC50 for genotypes (GT) 1a, 1b, 1b 316N and 1a 316Y.

[4] = test system: sub-genomic HCV NS3-NS5B replicon genotype 1b (Huh-7 cells); assay: Replicon luciferase cell based assay, genotype 1b; conditions: Hepatitis C virus; Huh-7 genotype 1b luciferase replicon, 48 hours; read-out: EC50 GT1b
Experimental: as §1, §2, §3, §4

[5] = test system: sub-genomic HCV NS3-NS5B replicon genotype 1b C316N (Huh-7 cells); assay: Replicon luciferase cell based assay, genotype 1b C316N; conditions: Hepatitis C virus, Huh-7, 48 h, read-out: EC50 1b 316N
Experimental: as §1, §2, §3, §4

[6] = test system: sub-genomic HCV NS3-NS5B replicon genotype 1a C316Y (Huh-7 cells); assay: Replicon luciferase cell based assay, genotype 1a C316Y; conditions: Hepatitis C virus, Huh-7, 48 h, read-out: EC50 1a 316Y
Experimental: as §1, §2, §3, §4

Row | Structure (SMILES) | DNAUC ([1]; Rat) | T 1/2 ([1]; Rat) | clearance ([1]; rat, blood, intravenous) | Vd ([1]; rat, blood, intravenous, read-out: Vss) | bioavailability ([1]; rat, blood, oral) | half-life [2] | pEC50 [3] | pEC50 [4] | pEC50 [5] | pEC50 [6]
1 | CNC(=O)c1c(-c2ccc(F)cc2)oc2cc(N(Cc3ccc(B(O)O)c(Cl)c3)S(C)(=O)=O)c(C3CC3)cc12 [B] | 122 ng·h/mL/mg/kg | 1.1 H | 33.1 mL/min/kg | 2.5 L/kg | 23% | 45 min |  |  |  | 
2 | CNC(=O)c1c(-c2ccc(F)cc2)oc2cc(N(c3ccc(B4OC(C)(C)C(C)(C)O4)c(C)c3)S(C)(=O)=O)c(C3CC3)cc12 [Example 22, 5-Cyclopropyl-2-(4-fluorophenyl)-N-methyl-6-(N-(3-methyl-4-(4,4,5,5-tetramethyl-1,3,2-dioxaborolan-2-yl)phenyl)methylsulfonamido)benzofuran-3-carboxamide] |  |  |  |  |  |  | 8.00 to 9.00 | 8.00 to 9.00 | 8.00 to 9.00 | 6.00 to 6.70
3 | CNC(=O)c1c(-c2ccc(F)cc2)oc2cc(N(c3ccc(B(O)O)c(F)c3)S(C)(=O)=O)c(C3CC3)cc12 [Example 5, 4-(N-(5-cyclopropyl-2-(4-fluorophenyl)-3-(methylcarbamoyl)benzofuran-6-yl)methylsulfonamido)-2-fluorophenylboronic acid] |  |  |  |  |  |  | 8.00 to 9.00 | 8.00 to 9.00 | 8.00 to 9.00 | 6.70 to 7.96
4 | CS(=O)(=O)N(c1ccc(B(O)O)c(Cl)c1)c1cc2oc(-c3ccc(Cl)cc3)c(C(N)=O)c2cc1C1CC1 [Example 14, (4-(N-(3-carbamoyl-2-(4-chlorophenyl)-5-cyclopropylbenzofuran-6-yl)methylsulfonamido)-2-chlorophenyl)boronic acid] |  |  |  |  |  |  | 8.00 to 9.00 | 8.00 to 9.00 | 8.00 to 9.00 | 6.70 to 7.96
5 | CNC(=O)c1c(-c2ccc(F)cc2)oc2cc(N(c3cccc(B(O)O)c3)S(C)(=O)=O)c(C3CC3)cc12 [Example 4, 3-(N-(5-cyclopropyl-2-(4-fluorophenyl)-3-(methylcarbamoyl)benzofuran-6-yl)methylsulfonamido)phenylboronic acid] |  |  |  |  |  |  | 8.00 to 9.00 | 8.00 to 9.00 | 6.70 to 7.96 | < 6.00
6 | CNC(=O)c1c(-c2ccc(F)cc2)oc2cc(N(c3ccc(C4CCB(O)O4)c(Cl)c3)S(C)(=O)=O)c(C3CC3)cc12 (centres unmarked) [Example 27, 6-(N-(3-Chloro-4-(2-hydroxy-1,2-oxaborolan-5-yl)phenyl)methylsulfonamido)-5-cyclopropyl-2-(4-fluorophenyl)-N-methylbenzofuran-3-carboxamide] |  |  |  |  |  |  | 8.00 to 9.00 | 8.00 to 9.00 | 6.70 to 7.96 | 6.70 to 7.96
7 | CNC(=O)c1c(-c2ccc(F)cc2)oc2cc(N(c3ccc(C4COB(O)C4)c(Cl)c3)S(C)(=O)=O)c(C3CC3)cc12 (centres unmarked) [Example 25, 6-(N-(3-Chloro-4-(2-hydroxy-1,2-oxaborolan-4-yl)phenyl)methylsulfonamido)-5-cyclopropyl-2-(4-fluorophenyl)-N-methylbenzofuran-3-carboxamide] |  |  |  |  |  |  | 8.00 to 9.00 | 8.00 to 9.00 | 6.70 to 7.96 | 6.70 to 7.96
8 | CNC(=O)c1c(-c2ccc(F)cc2)oc2cc(N(c3ccc(OCB(O)O)c(Cl)c3)S(C)(=O)=O)c(C3CC3)cc12 [Example 19, ((2-Chloro-4-(N-(5-cyclopropyl-2-(4-fluorophenyl)-3-(methylcarbamoyl)benzofuran-6-yl)methylsulfonamido)phenoxy)methyl)boronic acid] |  |  |  |  |  |  | 8.00 to 9.00 | 8.00 to 9.00 | 8.00 to 9.00 | 8.00 to 9.00
9 | CNC(=O)c1c(-c2ccc(F)cc2)oc2cc(N(c3ccc(C4CCB(O)O4)c(Cl)c3)S(C)(=O)=O)c(C3CC3)cc12 (single isomer, unassigned; enantiomer 1) [Example 28, 6-(N-(3-Chloro-4-(2-hydroxy-1,2-oxaborolan-5-yl)phenyl)methylsulfonamido)-5-cyclopropyl-2-(4-fluorophenyl)-N-methylbenzofuran-3-carboxamide, enantiomer 1] |  |  |  |  |  |  | 8.00 to 9.00 | 8.00 to 9.00 | 6.70 to 7.96 | 6.70 to 7.96
10 | CNC(=O)c1c(-c2ccc(Cl)cc2)oc2cc(N(c3ccc(B(O)O)c(F)c3)S(C)(=O)=O)c(C3CC3)cc12 [Example 7, 4-(N-(2-(4-chlorophenyl)-5-cyclopropyl-3-(methylcarbamoyl)benzofuran-6-yl)methylsulfonamido)-2-fluorophenylboronic acid] |  |  |  |  |  |  | 8.00 to 9.00 | 8.00 to 9.00 | 8.00 to 9.00 | 6.70 to 7.96
11 | CNC(=O)c1c(-c2ccc(F)cc2)oc2cc(N(c3ccc(CCB(O)O)c(Cl)c3)S(C)(=O)=O)c(C3CC3)cc12 [Example 23, (2-Chloro-4-(N-(5-cyclopropyl-2-(4-fluorophenyl)-3-(methylcarbamoyl)benzofuran-6-yl)methylsulfonamido)phenethyl)boronic acid] |  |  |  |  |  |  | 8.00 to 9.00 | 8.00 to 9.00 | 6.70 to 7.96 | 6.70 to 7.96
12 | CNC(=O)c1c(-c2ccc(Cl)cc2)oc2cc(N(c3ccc(B(O)O)c(Cl)c3)S(C)(=O)=O)c(C3CC3)cc12 [Example 2, (2-Chloro-4-(N-(2-(4-chlorophenyl)-5-cyclopropyl-3-(methylcarbamoyl)benzofuran-6-yl)methylsulfonamido)phenyl)boronic acid] |  |  |  |  |  |  | 8.00 to 9.00 | 8.00 to 9.00 | 8.00 to 9.00 | 8.00 to 9.00
